In paper PMC5529531, “Engineered isopeptide bond stabilized fibrin inspired nanoscale peptide based sealants for efficient blood clotting” (Scientific Reports, 2017):
Where “and” joins values, the source holds several entries; their conditions need not be identical. Equal entries are not always repeated.

Test system: platelet-free plasma
Assay: Thrombin clotting time experiment with platelet-free plasma
Details: 0.35 mL chicken platelet-free plasma at 37 °C + 0.15 mL sealant solution (peptide 1.5 mM in 25 mM PBS pH 7.4, 5 mM CaCl2, 10 µL TG 7 U/mL) or thrombin-calcium reagent; mean ± SD of two independent experiments
Description: Plasma was collected by centrifuging whole non-coagulated chicken blood (4500 rpm, 10 min, 4 °C). Thrombin clotting time (Figure S19) experiment was performed by incubating 0.35 mL platelet-free plasma, in a 1.5 mL microcentrifuge tube at 37 °C for 10 min, followed by the addition of the thrombin-calcium reagent, 0.15 mL, maintained at room temperature. The period of clot formation was noted. The same batch of platelet-free plasma was used to determine sealant clotting time. Platelet-free plasma 0.35 mL, was taken in a 1.5 mL microcentrifuge tube incubated at 37 °C followed by addition of 0.15 mL sealant solution. Sealant was prepared by dissolving each peptide in 25 mM PBS buffer, pH 7.4 with 5 mM CaCl2 where final conc. of the peptide was 1.5 mM followed by the addition of 10 µL TG (7 U/1 mL) soln. The period of clot formation was noted. The results are represented as mean ± SD of two independent experiments.
Figure S19. Determination of clotting time of sealants with plasma by thrombin clotting time method. The clotting time in presence of thrombin, sealants 1, 2 and 3 are 32±2, 35±1, 25±1 and 28±2 secs, respectively.

thrombin: thrombin (bovine plasma), used as thrombin-calcium reagent
clotting time (thrombin clotting time experiment): 32±2 secs and ~ 32 ± 2 secs
